# Read-outs that look alike come from different tables or passages of the source.
# Tested on: panel of cell lines and tumor explants
# Experiment: Soft agar (clonogenic) assay on cell lines and tumor explants
# Type: cell-based, human
# Parameters: key to Differential: panel average log(GI50) minus sample log(GI50); positive = more sensitive
# Conditions: for Differential: average log(GI50) 0.236 minus log(GI50); for GI50: Homo sapiens
# Procedure: Compound IIa was tested against a panel of cell lines and tumor explants in a soft agar assay as described in Fiebig, H. H., Maier, A., and Burger, A. M. (Clonogenic assay with established human tumour xenorafts: correlation of in vitro to in vivo activity as a basis for anticancer drug discovery, Eur. J. Cancer 40, 802-820 (2004).) Table 16 lists the type of cancer, the name of the sample, its GI50 (concentration needed to achieve 50% growth inhibition) value in the assay, the logarithm of the GI50 (log(GI50), and the relative sensitivity of each sample (Differential). The differential is calculated by subtracting the log(GI50) for each cell line from the average log(GI50) across the entire panel (0.236 in this case); a positive value indicates a sample that is more sensitive than average, whereas a negative value indicates a sample that is less sensitive than average.
smiles,measurement,setting,value
CC(C)(C)[C@H](c1nc(-c2cc(F)ccc2F)cn1Cc1ccccc1)N(CC[C@H](N)CF)C(=O)CO [Compound IIa],Differential,"Bladder, sample 439",−0.764
same,Differential,"Bladder, sample 1036",1.176
same,Differential,"Bladder, sample 1218",0.530
same,Differential,"Bladder, sample 1228",0.738
same,Differential,"Bladder, sample 1258",−0.996
same,Differential,"Bladder, sample 1352",0.249
same,Differential,"Breast, sample 401",0.486
same,Differential,"Breast, sample 449",0.509
same,Differential,"Breast, sample 574",−0.764
same,Differential,"Breast, sample 583",0.858
same,Differential,"Breast, sample 713",0.849
same,Differential,"Breast, sample 857",−0.154
same,Differential,"Breast, sample 1162",0.780
same,Differential,"Breast, sample 1322",0.090
same,Differential,"Breast, sample 1384",−0.189
same,Differential,"Breast, sample 1398",0.858
same,Differential,"Colorectal, sample 94LX",−1.054
same,Differential,"Colorectal, sample 158",−0.764
same,Differential,"Colorectal, sample 233",0.860
same,Differential,"Colorectal, sample 243",−0.764
same,Differential,"Colorectal, sample 260",−0.764
same,Differential,"Colorectal, sample 268",−0.559
same,Differential,"Colorectal, sample 280",−0.764
same,Differential,"Colorectal, sample 504",0.800
same,Differential,"Colorectal, sample 533",−0.007
same,Differential,"Colorectal, sample 609",−0.764
same,Differential,"Colorectal, sample 647",−0.764
same,Differential,"Colorectal, sample 676",−0.764
same,Differential,"Colorectal, sample 742",−0.036
same,Differential,"Colorectal, sample 975",−0.764
same,Differential,"Colorectal, sample 1034",0.906
same,Differential,"Colorectal, sample 1044",0.450
same,Differential,"Colorectal, sample 1103",0.236
same,Differential,"Colorectal, sample 1297",−0.764
same,Differential,"Colorectal, sample 1299",−0.764
same,Differential,"Colorectal, sample 1729",−0.764
same,Differential,"Colorectal, sample 1753",−0.816
same,Differential,"Colorectal, sample 1783",0.378
same,Differential,"Colorectal, sample 1784",−0.539
same,Differential,"Colorectal, sample 1788",−0.115
same,Differential,"Gastric, sample 209",−0.764
same,Differential,"Gastric, sample 214",−0.718
same,Differential,"Gastric, sample 1172",−0.764
same,GI50,"22Rv1, Prostate, sample 22RV1, GI50 in nM, read-out: log(GI50) (converted)",0.537 nM
same,GI50,"22Rv1, Prostate, sample 22RV1, read-out: GI50",0.537 nM
same,GI50,"Bladder, sample 439, GI50 in nM, read-out: log(GI50) (converted)",≥ 10 nM
same,GI50,"Bladder, sample 439, read-out: GI50",10 nM
same,GI50,"Bladder, sample 1036, GI50 in nM, read-out: log(GI50) (converted)",0.115 nM
same,GI50,"Bladder, sample 1036, read-out: GI50",0.115 nM
same,GI50,"Bladder, sample 1218, GI50 in nM, read-out: log(GI50) (converted)",0.509 nM
same,GI50,"Bladder, sample 1218, read-out: GI50",0.509 nM
same,GI50,"Bladder, sample 1228, GI50 in nM, read-out: log(GI50) (converted)",0.315 nM
same,GI50,"Bladder, sample 1228, read-out: GI50",0.315 nM
same,GI50,"Bladder, sample 1258, GI50 in nM, read-out: log(GI50) (converted)",17.1 nM
same,GI50,"Bladder, sample 1258, read-out: GI50",17.1 nM
same,GI50,"Bladder, sample 1352, GI50 in nM, read-out: log(GI50) (converted)",0.973 nM
same,GI50,"Bladder, sample 1352, read-out: GI50",0.972 nM
same,GI50,"Breast, sample 401, GI50 in nM, read-out: log(GI50) (converted)",0.564 nM
same,GI50,"Breast, sample 401, read-out: GI50",0.563 nM
same,GI50,"Breast, sample 449, GI50 in nM, read-out: log(GI50) (converted)",0.535 nM
same,GI50,"Breast, sample 449, read-out: GI50",0.534 nM
same,GI50,"Breast, sample 574, GI50 in nM, read-out: log(GI50) (converted)",≥ 10 nM
same,GI50,"Breast, sample 574, read-out: GI50",10 nM
same,GI50,"Breast, sample 583, GI50 in nM, read-out: log(GI50) (converted)",0.239 nM
same,GI50,"Breast, sample 583, read-out: GI50",0.239 nM
same,GI50,"Breast, sample 713, GI50 in nM, read-out: log(GI50) (converted)",0.244 nM
same,GI50,"Breast, sample 713, read-out: GI50",0.244 nM
same,GI50,"Breast, sample 857, GI50 in nM, read-out: log(GI50) (converted)",2.45 nM
same,GI50,"Breast, sample 857, read-out: GI50",2.46 nM
same,GI50,"Breast, sample 1162, GI50 in nM, read-out: log(GI50) (converted)",0.286 nM
same,GI50,"Breast, sample 1162, read-out: GI50",0.286 nM
same,GI50,"Breast, sample 1322, GI50 in nM, read-out: log(GI50) (converted)",1.4 nM
same,GI50,"Breast, sample 1322, read-out: GI50",1.4 nM
same,GI50,"Breast, sample 1384, GI50 in nM, read-out: log(GI50) (converted)",2.67 nM
same,GI50,"Breast, sample 1384, read-out: GI50",2.67 nM
same,GI50,"Breast, sample 1398, GI50 in nM, read-out: log(GI50) (converted)",0.239 nM
same,GI50,"Breast, sample 1398, read-out: GI50",0.239 nM
same,GI50,"CCRF-CEM, Leukemia (ALL), sample CCRFCEM, GI50 in nM, read-out: log(GI50) (converted)",0.287 nM
same,GI50,"CCRF-CEM, Leukemia (ALL), sample CCRFCEM, read-out: GI50",0.287 nM
same,GI50,"Colorectal, sample 94LX, GI50 in nM, read-out: log(GI50) (converted)",19.5 nM
same,GI50,"Colorectal, sample 94LX, read-out: GI50",19.5 nM
same,GI50,"Colorectal, sample 158, GI50 in nM, read-out: log(GI50) (converted)",≥ 10 nM
same,GI50,"Colorectal, sample 158, read-out: GI50",10 nM
same,GI50,"Colorectal, sample 233, GI50 in nM, read-out: log(GI50) (converted)",0.238 nM
same,GI50,"Colorectal, sample 233, read-out: GI50",0.238 nM
same,GI50,"Colorectal, sample 243, GI50 in nM, read-out: log(GI50) (converted)",≥ 10 nM
same,GI50,"Colorectal, sample 243, read-out: GI50",10 nM
same,GI50,"Colorectal, sample 260, GI50 in nM, read-out: log(GI50) (converted)",≥ 10 nM
same,GI50,"Colorectal, sample 260, read-out: GI50",10 nM
same,GI50,"Colorectal, sample 268, GI50 in nM, read-out: log(GI50) (converted)",6.24 nM
same,GI50,"Colorectal, sample 268, read-out: GI50",6.24 nM
same,GI50,"Colorectal, sample 280, GI50 in nM, read-out: log(GI50) (converted)",≥ 10 nM
same,GI50,"Colorectal, sample 280, read-out: GI50",10 nM
same,GI50,"Colorectal, sample 504, GI50 in nM, read-out: log(GI50) (converted)",0.273 nM
same,GI50,"Colorectal, sample 504, read-out: GI50",0.273 nM
same,GI50,"Colorectal, sample 533, GI50 in nM, read-out: log(GI50) (converted)",1.75 nM
same,GI50,"Colorectal, sample 533, read-out: GI50",1.75 nM
same,GI50,"Colorectal, sample 609, GI50 in nM, read-out: log(GI50) (converted)",≥ 10 nM
same,GI50,"Colorectal, sample 609, read-out: GI50",10 nM
same,GI50,"Colorectal, sample 647, GI50 in nM, read-out: log(GI50) (converted)",≥ 10 nM
same,GI50,"Colorectal, sample 647, read-out: GI50",10 nM
same,GI50,"Colorectal, sample 676, GI50 in nM, read-out: log(GI50) (converted)",≥ 10 nM
same,GI50,"Colorectal, sample 676, read-out: GI50",10 nM
same,GI50,"Colorectal, sample 742, GI50 in nM, read-out: log(GI50) (converted)",1.87 nM
same,GI50,"Colorectal, sample 742, read-out: GI50",1.87 nM
same,GI50,"Colorectal, sample 975, GI50 in nM, read-out: log(GI50) (converted)",≥ 10 nM
same,GI50,"Colorectal, sample 975, read-out: GI50",10 nM
same,GI50,"Colorectal, sample 1034, GI50 in nM, read-out: log(GI50) (converted)",0.214 nM
same,GI50,"Colorectal, sample 1034, read-out: GI50",0.214 nM
same,GI50,"Colorectal, sample 1044, GI50 in nM, read-out: log(GI50) (converted)",0.612 nM
same,GI50,"Colorectal, sample 1044, read-out: GI50",0.612 nM
same,GI50,"Colorectal, sample 1103, GI50 in nM, read-out: log(GI50) (converted)",1 nM
same,GI50,"Colorectal, sample 1103, read-out: GI50",1 nM
same,GI50,"Colorectal, sample 1297, GI50 in nM, read-out: log(GI50) (converted)",≥ 10 nM
same,GI50,"Colorectal, sample 1297, read-out: GI50",10 nM
same,GI50,"Colorectal, sample 1299, GI50 in nM, read-out: log(GI50) (converted)",≥ 10 nM
same,GI50,"Colorectal, sample 1299, read-out: GI50",10 nM
same,GI50,"Colorectal, sample 1729, GI50 in nM, read-out: log(GI50) (converted)",≥ 10 nM
same,GI50,"Colorectal, sample 1729, read-out: GI50",10 nM
same,GI50,"Colorectal, sample 1753, GI50 in nM, read-out: log(GI50) (converted)",11.3 nM
same,GI50,"Colorectal, sample 1753, read-out: GI50",11.3 nM
same,GI50,"Colorectal, sample 1783, GI50 in nM, read-out: log(GI50) (converted)",0.721 nM
same,GI50,"Colorectal, sample 1783, read-out: GI50",0.721 nM
same,GI50,"Colorectal, sample 1784, GI50 in nM, read-out: log(GI50) (converted)",5.97 nM
same,GI50,"Colorectal, sample 1784, read-out: GI50",5.97 nM
same,GI50,"Colorectal, sample 1788, GI50 in nM, read-out: log(GI50) (converted)",2.24 nM
same,GI50,"Colorectal, sample 1788, read-out: GI50",2.25 nM
same,GI50,"DU-145, Prostate, sample DU145, GI50 in nM, read-out: log(GI50) (converted)",1 nM
same,GI50,"DU-145, Prostate, sample DU145, read-out: GI50",1 nM
same,GI50,"Gastric, sample 209, GI50 in nM, read-out: log(GI50) (converted)",≥ 10 nM
same,GI50,"Gastric, sample 209, read-out: GI50",10 nM
same,GI50,"Gastric, sample 214, GI50 in nM, read-out: log(GI50) (converted)",8.99 nM
same,GI50,"Gastric, sample 214, read-out: GI50",9 nM
same,GI50,"Gastric, sample 1172, GI50 in nM, read-out: log(GI50) (converted)",≥ 10 nM
same,GI50,"Gastric, sample 1172, read-out: GI50",10 nM
same,GI50,"Jurkat, Leukemia (ALL), sample JURKAT, GI50 in nM, read-out: log(GI50) (converted)",0.106 nM
same,GI50,"Jurkat, Leukemia (ALL), sample JURKAT, read-out: GI50",0.106 nM
same,GI50,"K562, Leukemia (CML), sample K562, GI50 in nM, read-out: log(GI50) (converted)",0.27 nM
same,GI50,"K562, Leukemia (CML), sample K562, read-out: GI50",0.27 nM
same,GI50,"MOLT-4, Leukemia (ALL), sample MOLT4, GI50 in nM, read-out: log(GI50) (converted)",0.877 nM

# From patent publication US8252832B2, “Kinesin inhibitors as cancer therapeutics” (Novartis AG, priority 2007, dated 2012)
